Measured values: US9426996B2, “Use of benzoxaboroles as volatile antimicrobial agents on meats, plants, or plant parts” (AgroFresh Inc., priority 2013, dated 2016)

Assays:
[1] = system: Botrytis cinerea; test: in vivo volatile bioassay using strawberry, grape and blueberry
Experimental: In order to assess the in vivo activity of volatile antimicrobial Compound A in fruit, a volatile bioassay is developed using strawberry, grape and blueberry. Eight strawberries, 16 grapes or 30 blueberries (per replicate) are placed in a commercially relevant sized PET clamshell, with the stem end facing up for blueberries and grapes, and downwards for strawberries. A fresh wound is inoculated with 20 μL (strawberry and grape) or 10 μL (blueberry) of 1×10^6 per mL Botrytis cinerea spore suspension. The clamshells are placed inside a 10.8-cup SnapWare airtight container (Model #109842). A 42.5 mm Whatman #1 filter disk (Cat. No. 1001-042) is placed on a watch glass. Compound A is dissolved in acetone and added to the disks in a dose dependent manner to produce a final headspace concentration of 0.4, 2, or 10 mg/L. The acetone is permitted to evaporate for five minutes. The containers are then closed with lids and placed for three days at 21° C. After storage, fruits are evaluated for incidence and severity (0 to 4) of disease for an additional three days at 21° C., with results summarized in Table 17.

[2] = system: Botrytis cinerea; test: combination treatment with 1-MCP on white roses; type: in vivo; settings: three day volatile treatment at 21° C.
Experimental: To evaluate a combination treatment of Compound A with 1-methylcyclopropene (1-MCP), an in vivo experiment is performed on white roses.
Five white roses are placed in an 800 mL jar containing 200 mL of a common commercial flower preservative. Three jars are then placed in a 117 L Rubbermaid storage box (Cat #2244). Two small fans are placed in opposite ends of the container to assist with the distribution of the two volatiles. A 500 parts per billion (ppb) volume per volume (v/v) 1-MCP treatment is applied (AgroFresh, Springhouse, Pa.) for 24 hours at 21° C. After the 1-MCP treatment is completed, the containers are vented, and Compound A powder is applied in a dose dependent manner to achieve a final headspace concentration of 0.2, 0.04, or 0.008 mg/L with a sublimation device (copper tube heated to 200° C. with fan flow at 0.5 L/min), with the end of the tube penetrating through a ½ inch side port in the container that is sealed immediately after the application. The flowers are incubated for three days at 21° C. After treatment, the flowers are evaluated for an additional seven days at 21° C. for disease incidence and severity of the flower petals.

[3] = system: Alternaria alternata; test: combination treatment with 1-MCP on tomato; type: in vivo; settings: tomatoes
Experimental: Each tomato fruit is wounded three times and inoculated with 1×10^6 spores/mL of Alternaria alternata and then placed in a 117 L Rubbermaid storage box (Cat #2244) with two small fans placed in opposite ends of the container. A 1000 ppb v/v 1-MCP treatment is applied (AgroFresh, Springhouse, Pa.) for 24 hours at 21° C. After completion of the 1-MCP treatment, the tomatoes are removed and placed in a 10.8-cup […] airtight container (Model #109842). […] The tomatoes are incubated for three days at 21° C., then evaluated for an additional three days at 21° C. for disease incidence and severity. Results listed in Table 29 show good activity against Alternaria alternata infection of tomato.

[4] = system: Alternaria alternata; test: combination treatment with 1-MCP on broccoli; type: in vivo; set-up: scale not given here; settings: 11 C.
[5] = Blueberry, 0.4 mg/L, evaluation day 0
[6] = Blueberry, 0.4 mg/L, evaluation day 1
[7] = Blueberry, 0.4 mg/L, evaluation day 2
[8] = Blueberry, 0.4 mg/L, evaluation day 3
[9] = Blueberry, 2 mg/L, evaluation day 0
[10] = Blueberry, 2 mg/L, evaluation day 1
[11] = Blueberry, 2 mg/L, evaluation day 2
[12] = Blueberry, 2 mg/L, evaluation day 3
[13] = Blueberry, 10 mg/L, evaluation day 0
[14] = Blueberry, 10 mg/L, evaluation day 1
[15] = Blueberry, 10 mg/L, evaluation day 2
[16] = Blueberry, 10 mg/L, evaluation day 3
[17] = Grape, 0.4 mg/L, evaluation day 0
[18] = Grape, 0.4 mg/L, evaluation day 1
[19] = Grape, 0.4 mg/L, evaluation day 2
[20] = Grape, 0.4 mg/L, evaluation day 3
[21] = Grape, 2 mg/L, evaluation day 2
[22] = Grape, 2 mg/L, evaluation day 3
[23] = Grape, 10 mg/L, evaluation day 2
[24] = Grape, 10 mg/L, evaluation day 3
[25] = Strawberry, 0.4 mg/L, evaluation day 0
[26] = Strawberry, 0.4 mg/L, evaluation day 1
[27] = Strawberry, 0.4 mg/L, evaluation day 2
[28] = Strawberry, 0.4 mg/L, evaluation day 3
[29] = Strawberry, 2 mg/L, evaluation day 0
[30] = Strawberry, 2 mg/L, evaluation day 1
[31] = Strawberry, 2 mg/L, evaluation day 2
[32] = Strawberry, 2 mg/L, evaluation day 3
[33] = Strawberry, 10 mg/L, evaluation day 0
[34] = Strawberry, 10 mg/L, evaluation day 1
[35] = Strawberry, 10 mg/L, evaluation day 2
[36] = Strawberry, 10 mg/L, evaluation day 3

OB1OCc2cc(F)ccc21 [Compound A]
Incidence (%) [1, 5]: 21%
Severity (0-4) [1, 5]: 0.1
Incidence (%) [1, 6]: 21%
Severity (0-4) [1, 6]: 0.2
Incidence (%) [1, 7]: 40.3%
Severity (0-4) [1, 7]: 0.5
Incidence (%) [1, 8]: 62.9%
Severity (0-4) [1, 8]: 1
Incidence (%) [1, 9]: 9.7%
Severity (0-4) [1, 9]: 0
Incidence (%) [1, 10]: 9.7%
Severity (0-4) [1, 10]: 0
Incidence (%) [1, 11]: 9.7%
Severity (0-4) [1, 11]: 0.1
Incidence (%) [1, 12]: 40.3%
Severity (0-4) [1, 12]: 0.6
Incidence (%) [1, 13]: 12.9%
Severity (0-4) [1, 13]: 0.1
Incidence (%) [1, 14]: 12.9%
Severity (0-4) [1, 14]: 0.1
Incidence (%) [1, 15]: 12.9%
Severity (0-4) [1, 15]: 0.2
Incidence (%) [1, 16]: 41.9%
Severity (0-4) [1, 16]: 0.6
Incidence (%) [1, 17]: 3.1%
Severity (0-4) [1, 17]: 0
Incidence (%) [1, 18]: 3.1%
Severity (0-4) [1, 18]: 0
Incidence (%) [1, 19]: 15.6%
Severity (0-4) [1, 19]: 0.2
Incidence (%) [1, 20]: 62.5%
Severity (0-4) [1, 20]: 0.5
Severity (0-4) ([1]; Grape, 2 mg/L, evaluation day 0): 0
Severity (0-4) ([1]; Grape, 2 mg/L, evaluation day 1): 0
Incidence (%) [1, 21]: 0%
Severity (0-4) [1, 21]: 0
Incidence (%) [1, 22]: 56.3%
Severity (0-4) [1, 22]: 0.3
Severity (0-4) ([1]; Grape, 10 mg/L, evaluation day 0): 0
Severity (0-4) ([1]; Grape, 10 mg/L, evaluation day 1): 0
Incidence (%) [1, 23]: 3.1%
Severity (0-4) [1, 23]: 0
Incidence (%) [1, 24]: 56.3%
Severity (0-4) [1, 24]: 0.4
Incidence (%) [1, 25]: 0%
Severity (0-4) [1, 25]: 0
Incidence (%) [1, 26]: 21.4%
Severity (0-4) [1, 26]: 0.1
Incidence (%) [1, 27]: 21.4%
Severity (0-4) [1, 27]: 0.1
Incidence (%) [1, 28]: 28.6%
Severity (0-4) [1, 28]: 0.5
Incidence (%) [1, 29]: 14.3%
Severity (0-4) [1, 29]: 0.1
Incidence (%) [1, 30]: 50%
Severity (0-4) [1, 30]: 0.3
Incidence (%) [1, 31]: 50%
Severity (0-4) [1, 31]: 0.3
Incidence (%) [1, 32]: 64.3%
Severity (0-4) [1, 32]: 0.5
Incidence (%) [1, 33]: 7.1%
Severity (0-4) [1, 33]: 0
Incidence (%) [1, 34]: 35.7%
Severity (0-4) [1, 34]: 0.2
Incidence (%) [1, 35]: 42.9%
Severity (0-4) [1, 35]: 0.5
Incidence (%) [1, 36]: 42.9%
Severity (0-4) [1, 36]: 0.8
Incidence (%) ([2]; 0.008 mg/L): 20.0%
Severity (0-4) ([2]; 0.008 mg/L): 0.2
Incidence (%) ([2]; 0.04 mg/L): 20.0%
Severity (0-4) ([2]; 0.04 mg/L): 0.03
Incidence (%) ([2]; 0.2 mg/L): 0.0%
Severity (0-4) ([2]; 0.2 mg/L): 0.0
Diameter of the rot (mm) ([3]; 0.4 mg/L): 3.8 mm
Diameter of the rot (mm) ([3]; 2 mg/L): 0.0 mm
Color Score ([4]; 0.4 mg/L): 1.75
Severity ([4]; 0.4 mg/L): 0.00
Color Score ([4]; 2 mg/L): 2.11
Severity ([4]; 2 mg/L): 0.00
